Results reported in paper PMC3048735 (The Journal of Biological Chemistry, 2011).

Biological target: T1, TryP (TbTryP) (Trypanosoma brucei, UniProt Q71RY2)
T1 sequence (Q71RY2 1-199): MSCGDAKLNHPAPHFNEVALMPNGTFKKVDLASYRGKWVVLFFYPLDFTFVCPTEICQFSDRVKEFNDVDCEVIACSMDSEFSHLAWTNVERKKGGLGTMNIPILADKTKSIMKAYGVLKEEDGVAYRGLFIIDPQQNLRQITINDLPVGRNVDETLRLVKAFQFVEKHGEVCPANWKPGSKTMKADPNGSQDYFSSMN
Test: TryP-limited coupled peroxidase assay, NADPH consumption at […] nm
Format: biochemical

- IC50: 14.1 ± 0.8 µM
SMILES: O=C1C=CC(O)(c2nc3ccccc3s2)C=C1 [compound 1, PMX464]
